# Measurements from PubChem BioAssay (NCI).
#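 A five-concentration, 48-hour dose response in 96-well plates underlies each endpoint, interpolated linearly between surrounding concentrations. GI50 marks 50% less growth. At the TGI there is no net growth.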
# Key:
# Experiment in all cases: DTP human tumour cell line panel, 48 h
# UACC-257 melanoma = tested on: UACC-257 melanoma
# SN12C renal = tested on: SN12C renal
# SK-OV-3 ovarian = tested on: SK-OV-3 ovarian
# SNB-75 CNS = tested on: SNB-75 CNS
# SW-620 colon = tested on: SW-620 colon
# OVCAR-4 ovarian = tested on: OVCAR-4 ovarian
# DU-145 prostate = tested on: DU-145 prostate
# COLO 205 colon = tested on: COLO 205 colon
# HOP-92 NSCLC = tested on: HOP-92 NSCLC
# NCI-H460 lung = tested on: NCI-H460 lung
SMILES,TGI (UACC-257 melanoma) [µM],TGI (SN12C renal) [µM],TGI (SK-OV-3 ovarian) [µM],TGI (SNB-75 CNS) [µM],TGI (SW-620 colon) [µM],TGI (OVCAR-4 ovarian) [µM],TGI (DU-145 prostate) [µM],TGI (COLO 205 colon) [µM],TGI (HOP-92 NSCLC) [µM],TGI (NCI-H460 lung) [µM],GI50 (UACC-257 melanoma) [µM],GI50 (SN12C renal) [µM],GI50 (SNB-75 CNS) [µM],GI50 (SW-620 colon) [µM],GI50 (OVCAR-4 ovarian) [µM],GI50 (HOP-92 NSCLC) [µM],GI50 (DU-145 prostate) [µM],GI50 (COLO 205 colon) [µM],GI50 (SK-OV-3 ovarian) [µM],GI50 (NCI-H460 lung) [µM]
CC(=O)N=C1N(/C=C2\C(=O)Oc3ccccc3C2=O)C(=O)/C(=C/c2ccc(Cl)cc2Cl)N1C,> 100,> 100,> 100,> 100,> 100,> 100,> 100,> 100,,,,,,,,,,,,
COC(=O)[C@H](Cc1c[nH]c2ccccc12)NC(=O)c1ccc(CNC(=O)/C=C/c2cccc(Oc3ccccc3)c2)cc1,40.3,> 100,> 100,> 100,> 100,> 100,> 100,> 100,> 100,> 100,,,,,,,,,,
CCNC(=O)c1c(O)c2ccccc2[nH]c1=O,> 100,> 100,,> 100,> 100,> 100,> 100,> 100,> 100,> 100,,,,,,,,,,
CCOC(=O)CC1(c2cccc3ccccc23)OC(=O)c2ccccc21 (configuration not stated),> 100,> 100,> 100,75.8,> 100,> 100,,98.5,,> 100,,,,,,,,,,
Cc1ccc(/C=N/Nc2ccc3ccccc3n2)s1,> 100,28.4,> 100,> 100,92.1,> 100,,31.1,78.3,,,,,,,,,,,
Clc1ccc(C2Nc3ccccc3C3=NCCN32)cc1 (configuration not stated),36,> 100,> 100,,98.6,> 100,> 100,25.7,34,53,,,,,,,,,,
COc1ccc(CN=C(N)N)c2ccccc12,> 100,52.4,> 100,55.2,> 100,,> 100,38,,,,,,,,,,,,
c1csc(C[N+]23CN4CN(CN(C4)C2)C3)c1,> 100,,,> 100,90.7,49,,40.8,44.9,49.2,,,,,,,,,,
Cc1noc(NC2=CC(=O)C(=O)c3ccccc32)c1C,64,3.7,> 100,82.5,,> 100,> 100,> 100,78.1,> 100,,,,,,,,,,
O=C1OC(=O)c2cc(S(=O)(=O)c3ccc4c(c3)C(=O)OC4=O)ccc21,> 100,> 100,> 100,> 100,> 100,> 100,> 100,> 100,,> 100,,,,,,,,,,
COc1cc2c(cc1OC)C1(COc3cc(O)c(O)c(O)c3C1=O)C2 (configuration not stated),> 50,> 50,> 50,> 50,> 50,> 50,> 50,> 50,,> 50,,,,,,,,,,
CC(=O)OC[C@@H](OC(C)=O)[C@H](OC(C)=O)[C@@H]1OC(C)(C)O[C@@H]1C1SCCCS1,> 100,,> 100,> 100,> 100,> 100,> 100,> 100,,> 100,,,,,,,,,,
O=C1c2cc(Cl)ccc2NC(=NCCCl)C2CSCN12 (configuration not stated),> 100,> 100,> 100,,> 100,> 100,> 100,> 100,,> 100,,,,,,,,,,
CC(=O)OC1COC(Nc2nc(NCc3ccccc3)n(C)c(=O)c2N=O)C(OC(C)=O)C1OC(C)=O (configuration not stated),> 10,> 10,> 10,> 10,> 10,> 10,> 10,> 10,,> 10,,,,,,,,,,
CC[C@H]1C=CCC[C@@]2(C[C@@H]3CC[C@H]4[C@@H](C(=O)OCCCCCCCCCCCCCCCC(=O)N(CCCN)C[C@@H](O)CCN)[C@@]5(CCC[C@@H](C)O5)NC(=[N+]34)N2)O1,3.41,9.33,3.19,,6.99,> 10,3.61,3.79,4.1,3.36,,,,,,,,,,
Nc1nc(N)c2cc(NCc3ccc(Cl)c(Cl)c3)ccc2n1,3.22,2.89,,2.48,1.59,2.61,3.01,2.6,1.75,,1.71,1.5,1.23,0.431,1.34,0.348,1.65,1.32,,
Cc1ccc(/C(O)=C/c2nc3ccccc3s/c2=N/CS(=O)(=O)c2ccc(C)cc2)cc1,> 10,> 10,> 10,> 10,> 10,> 10,> 10,> 10,> 10,,,,,,,,,,,
CC(=O)N=C1N(/C=C2\C(=O)Oc3ccccc3C2=O)C(=O)/C(=C/c2ccc(NC(C)=O)cc2)N1C,> 100,> 100,> 100,> 100,> 100,> 100,> 100,> 100,,> 100,,,,,,,,,,
CN(c1ccccc1Cl)S(=O)(=O)c1ccc([N+](=O)[O-])cc1,> 100,> 100,> 100,> 100,> 100,> 100,> 100,> 100,,> 100,,,,,,,,,,
O=C(Nc1ccc(-n2ccc3c(NC(=O)c4ccccc4)ncnc32)cc1)Nc1cccc(Cl)c1Cl,7.7,2.32,,2.71,2.36,1.91,3.85,7.97,2.48,,2.15,1.08,0.777,0.998,0.878,0.847,1.47,1.75,,
NC1=CN2c3ccccc3N(CC(=O)O)C2C=C1 (configuration not stated),> 100,,> 100,> 100,> 100,> 100,> 100,> 100,> 100,> 100,,,,,,,,,,
O=C1CC(c2cccc(Br)c2)n2cccc21 (configuration not stated),> 100,> 100,> 100,> 100,> 100,> 100,> 100,> 100,> 100,,,,,,,,,,,
O=C(NCc1cccc2ccccc12)N/N=C\c1ccc(Cl)cc1,> 100,> 100,,> 100,> 100,> 100,> 100,> 100,> 100,> 100,,,,,,,,,,

SMILES,TGI (UACC-257 melanoma) [µM],TGI (SN12C renal) [µM],TGI (SK-OV-3 ovarian) [µM],TGI (SNB-75 CNS) [µM],TGI (SW-620 colon) [µM],TGI (OVCAR-4 ovarian) [µM],TGI (DU-145 prostate) [µM],TGI (COLO 205 colon) [µM],TGI (HOP-92 NSCLC) [µM],TGI (NCI-H460 lung) [µM],GI50 (UACC-257 melanoma) [µM],GI50 (SN12C renal) [µM],GI50 (SNB-75 CNS) [µM],GI50 (SW-620 colon) [µM],GI50 (OVCAR-4 ovarian) [µM],GI50 (HOP-92 NSCLC) [µM],GI50 (DU-145 prostate) [µM],GI50 (COLO 205 colon) [µM],GI50 (SK-OV-3 ovarian) [µM],GI50 (NCI-H460 lung) [µM]
CC1=NN(c2nc(N)nc(CC#N)n2)C(C)(C)C1,> 100,,> 100,> 100,> 100,> 100,> 100,> 100,> 100,> 100,,,,,,,,,,
Cc1ccc(N(CC(=O)Nc2ccc(S(=O)(=O)N3CCC(N4CCCC4)CC3)cc2)S(=O)(=O)c2ccc(Cl)cc2)cc1,,,3.29,2.73,3.44,,3.4,3.39,2.71,3.43,,,1.22,1.66,,1.19,1.76,1.75,1.82,1.75
S=C(c1c[nH]c2ccccc12)N1CCN(Cc2ccccc2)CC1,50.9,30.1,51.4,37,31.6,,> 100,31,,67.6,,,,,,,,,,
CC1=Nc2sc3c(c2C2=NCCN12)CCCC3,48.5,69.6,,> 100,52.9,> 100,> 100,79.1,,39,,,,,,,,,,
Cc1ccc2nc(-c3ccc(N4C(=O)C(Cl)C4c4ccc(Cl)cc4)cc3)sc2c1 (configuration not stated),47.7,53.6,28,,48,8.38,> 100,27.8,18.9,46.2,,,,,,,,,,
Cc1csc(/N=C\c2c(O)c3ccccc3oc2=O)n1,> 100,,45.6,65.1,> 100,> 100,> 100,> 100,89.8,,,,,,,,,,,
CCOC(=O)C(NC(=O)c1ccccc1)(N1CCOCC1)C(F)(F)F (configuration not stated),> 100,> 100,> 100,> 100,> 100,> 100,> 100,> 100,> 100,,,,,,,,,,,
COc1cc2cc(C(=O)N3CC(CCl)c4c3cc(N)c3ccccc43)[nH]c2c(OC)c1OC (configuration not stated),,< 0.01,0.248,< 0.01,> 100,< 0.045,0.0549,< 0.01,0.275,,,,,,,,,,,
COc1ccc(C2C3COc4ccccc4C3=NN2c2ccccc2)cc1 (configuration not stated),> 100,,> 100,> 100,> 100,> 100,,> 100,> 100,> 100,,,,,,,,,,
O=C(N/N=C(/COc1ccc([N+](=O)[O-])cc1)N=Cc1ccncc1)c1ccncc1,> 100,> 100,> 100,> 100,> 100,> 100,> 100,> 100,,> 100,,,,,,,,,,
C=C1C(=O)O[C@@H]2C=C(C)C3=CC(=O)[C@](C)(C[C@H](OC(=O)/C(C)=C\C)[C@@H]12)O3,8.62,5.1,16.8,26.3,1.33,,15.8,2,2.18,7.73,,,,,,,,,,
O=c1[nH]nc(Cc2ccccc2)n1CCO,> 100,> 100,> 100,,> 100,> 100,> 100,> 100,> 100,> 100,,,,,,,,,,
CC(C)C(N)=O,> 5000,> 5000,> 5000,> 5000,> 5000,> 5000,,> 5000,> 5000,> 5000,,,,,,,,,,
CC1C2(C)OC(=N)C(C#N)(C(c3cccc([N+](=O)[O-])c3)O2)C1(C#N)C#N (configuration not stated),49.6,28.1,> 100,> 100,31.3,,> 100,27.5,33.1,29.7,,,,,,,,,,
Nc1ccc(C(=O)c2cn(CCN3CCOCC3)c3ccccc23)c2ccccc12,> 100,,> 100,,> 100,> 100,> 100,60.6,,> 100,,,,,,,,,,
C=C(OC1C(C)=C2C(C1OC(=O)CCCCCCC)C(C)(OC(C)=O)CC(OC(=O)CCC)C1(O)C2OC(=O)C1(C)O)/C(C)=C/C (configuration not stated),11.9,1.91,16.9,1.61,2.05,0.512,,0.101,3.09,0.046,0.000269,0.0105,< 0.0001,< 0.0001,< 0.0001,,,< 0.0001,,< 0.0001
O=C1Nc2ccc(Cl)cc2/C1=C\c1c(Cl)nc2sccn12,> 100,> 100,> 100,> 100,> 100,> 100,> 100,,> 100,,,,,,,,,,,
FC1C2=C(SC1(F)F)C1CCC2C1 (configuration not stated),> 100,,> 100,> 100,> 100,> 100,> 100,> 100,> 100,> 100,,,,,,,,,,
C[N+]1(CCCl)CC[N+](C)(CCCl)CC1 (configuration not stated),> 100,> 100,> 100,> 100,> 100,> 100,> 100,> 100,,> 100,,,,,,,,,,
NNC(=O)c1nnn(CCc2ccccc2)c1C(=O)NN,> 100,> 100,,,,> 100,> 100,> 100,,> 100,,,,,,,,,,
CCCCON1C[C@H](OC(C)=O)C(OC(C)=O)[C@H](OC(C)=O)C1 (some centres not stated),> 100,> 100,> 100,> 100,,> 100,> 100,> 100,> 100,> 100,,,,,,,,,,
Cc1ccc2oc(=O)c(C(=O)Nc3nc(C45CC6CC(CC(C6)C4)C5)cs3)cc2c1,> 100,> 100,,> 100,> 100,> 100,> 100,> 100,> 100,> 100,,,,,,,,,,
